Biological target: T1, α-hSlo (BKCa channel α-subunit) (Homo sapiens, UniProt Q12791)
T1 construct: gene KCNMA1; α-hSlo expressed in HEK293T cells
Experiment: patch clamp of α-hSlo-expressing HEK293T cells (Figure S1)
Type: cell-based

T1 sequence (Q12791 whole entry): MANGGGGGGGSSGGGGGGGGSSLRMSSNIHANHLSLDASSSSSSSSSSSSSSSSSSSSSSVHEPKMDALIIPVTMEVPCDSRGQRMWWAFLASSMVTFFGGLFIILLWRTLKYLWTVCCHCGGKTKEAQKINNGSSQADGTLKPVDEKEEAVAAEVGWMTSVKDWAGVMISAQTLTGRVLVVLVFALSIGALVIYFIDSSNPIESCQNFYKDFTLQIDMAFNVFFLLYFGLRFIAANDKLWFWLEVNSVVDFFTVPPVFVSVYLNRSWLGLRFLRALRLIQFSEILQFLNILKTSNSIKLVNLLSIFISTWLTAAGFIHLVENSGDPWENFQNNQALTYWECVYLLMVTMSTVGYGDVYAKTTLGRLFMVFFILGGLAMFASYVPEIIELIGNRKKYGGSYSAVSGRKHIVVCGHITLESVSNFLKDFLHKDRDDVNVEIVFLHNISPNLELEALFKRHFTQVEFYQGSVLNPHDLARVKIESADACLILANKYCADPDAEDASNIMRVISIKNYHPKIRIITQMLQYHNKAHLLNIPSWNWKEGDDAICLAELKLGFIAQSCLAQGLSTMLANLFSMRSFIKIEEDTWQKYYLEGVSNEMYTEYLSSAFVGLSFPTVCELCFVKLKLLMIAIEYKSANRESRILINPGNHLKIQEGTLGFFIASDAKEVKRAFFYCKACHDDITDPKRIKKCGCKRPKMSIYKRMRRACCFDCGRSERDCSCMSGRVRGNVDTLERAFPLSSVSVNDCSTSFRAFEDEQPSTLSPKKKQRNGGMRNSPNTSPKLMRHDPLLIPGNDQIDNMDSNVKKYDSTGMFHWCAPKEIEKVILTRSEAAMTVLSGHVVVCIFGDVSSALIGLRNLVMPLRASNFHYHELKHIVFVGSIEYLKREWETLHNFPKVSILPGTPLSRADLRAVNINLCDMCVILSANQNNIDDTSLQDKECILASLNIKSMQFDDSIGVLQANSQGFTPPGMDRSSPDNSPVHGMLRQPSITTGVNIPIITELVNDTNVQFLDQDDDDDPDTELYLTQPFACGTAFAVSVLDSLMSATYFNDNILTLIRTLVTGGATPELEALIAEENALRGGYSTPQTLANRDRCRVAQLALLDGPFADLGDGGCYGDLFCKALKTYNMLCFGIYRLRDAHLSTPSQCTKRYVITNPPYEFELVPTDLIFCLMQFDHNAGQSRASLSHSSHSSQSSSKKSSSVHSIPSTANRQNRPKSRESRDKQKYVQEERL

O=c1cc(CCl)nc2c(-c3cccc4ccccc34)c(C(F)(F)F)[nH]n12 [QO-40, 5-(chloromethyl)-3-(naphthalen-1-yl)-2-(trifluoromethyl)pyrazolo[1,5-a]pyrimidin-7(4H)-one]
patch clamp of α-hSlo-expressing HEK293T cells (Figure S1): In HEK293T cells expressing α-hSlo, QO-40 stimulated BKCa channel activity.

Reference: PMC8143083, “Effective Activation of BKCa Channels by QO-40 (5-(Chloromethyl)-3-(Naphthalen-1-yl)-2-(Trifluoromethyl)Pyrazolo [1,5-a]pyrimidin-7(4H)-one), Known to Be an Opener of KCNQ2/Q3 Channels” (Pharmaceuticals, 2021)
